Measured values published in patent US20060241172A1, “Benzodioxane and benzodioxolane derivatives and uses thereof” (Wyeth, priority 2005, published 2006).
Read-outs that look alike come from different tables or passages of the source.

Columns and labels:
[1] = molecular target: T1, human 5-hydroxytryptamine-2C (h5-HT2C) receptor (Homo sapiens, UniProt P28335); assay: 5-HT2C binding: [125I]DOI displacement in membranes of transfected CHO cells
T1 construct: expressed in transfected cells; host or cells: CHO (Chinese Hamster Ovary) cells; membranes
T1 sequence (P28335 33-458): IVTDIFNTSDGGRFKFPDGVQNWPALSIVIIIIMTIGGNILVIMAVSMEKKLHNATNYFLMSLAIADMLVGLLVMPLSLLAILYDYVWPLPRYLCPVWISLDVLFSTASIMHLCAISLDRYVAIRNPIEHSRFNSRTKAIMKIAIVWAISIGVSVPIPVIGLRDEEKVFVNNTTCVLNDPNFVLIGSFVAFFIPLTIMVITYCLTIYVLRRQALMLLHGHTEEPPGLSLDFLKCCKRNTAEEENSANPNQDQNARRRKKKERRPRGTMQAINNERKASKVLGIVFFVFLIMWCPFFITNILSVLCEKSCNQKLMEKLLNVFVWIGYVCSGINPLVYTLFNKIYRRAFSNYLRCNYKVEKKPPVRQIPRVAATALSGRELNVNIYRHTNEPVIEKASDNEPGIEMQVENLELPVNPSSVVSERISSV

human 5-HT2C receptor = molecular target: T2, human 5-HT2C receptor (Homo sapiens, UniProt P28335); assay: 5-HT2C receptor-stimulated calcium mobilization (FLIPR) in CHO cells; format: cell-based; details: for Emax: CHO, read-out: 5-HT2C Function EMax (%); for EC50: read-out: 5-HT2C Function EC50
T2 sequence (P28335 33-458): T1 sequence (P28335 33-458)

[2] = read-out: 5-HT2C Binding Ki avg

Row | Compound | Ki [1, 2] | Emax (human 5-HT2C receptor) | EC50 (human 5-HT2C receptor) | Ki ([1]; reference compounds, 95% confidence interval in the next column, read-out: Ki)
1 | NCC1Oc2cc(F)cc(-c3ccccc3C(F)(F)F)c2O1 (stereo not shown) [Compound I-82, 1-[4-(2-Trifluoromethyl-phenyl)-6-fluoro-1,3-benzodioxol-2-yl]methanamine] | < 50 nM | 70% | < 100 nM | 
2 | NC[C@H]1COc2cc(Cl)cc(-c3cc(Cl)ccc3Cl)c2O1 [Compound I-67, (2S)-[6-Chloro-8-(2,5-dichloro-phenyl)-2,3-dihydro-benzo[1,4]dioxin-2-yl]-methyl amine] | < 50 nM | 50% | 100 to 500 nM | 
3 | NC[C@H]1COc2ccc(Cl)c(-c3ccccc3Cl)c2O1 [Compound I-70, (2S)-[7-Chloro-8-(2-chloro-phenyl)-2,3-dihydro-benzo[1,4]dioxin-2-yl]-methylamine] | < 50 nM | 50% | < 100 nM | 
4 | NCC1COc2cccc(-c3cc(Cl)ccc3Cl)c2O1 (stereo not shown) [Compound I-8, {[8-(2,5-Dichlorophenyl)-2,3-dihydro-1,4-benzodioxin-2-yl]methyl}amine] | < 50 nM | 60% | < 100 nM | 
5 | COc1ccccc1-c1cc(F)cc2c1OC(CN)O2 (stereo not shown) [Compound I-76, 1-[6-Fluoro-4-(2-methoxyphenyl)-1,3-benzodioxol-2-yl]methanamine] | < 50 nM | 70% | < 100 nM | 
6 | CN(C)CC1COc2cccc(-c3ccc(Cl)cc3Cl)c2O1 (stereo not shown) [Compound I-39, {[8-(2,4-Dichlorophenyl)-2,3-dihydro-1,4-benzodioxin-2-yl]methyl}dimethylamine] | < 50 nM | 20% | 100 to 500 nM | 
7 | NC[C@@H]1Oc2cc(F)cc(-c3c(Cl)cccc3Cl)c2O1 [Compound I-86, 1-[(2R)-4-(2,6-dichlorophenyl)-6-fluoro-1,3-benzodioxol-2-yl]methanamine] | < 50 nM | 80% | > 500 nM | 
8 | CNCC1Oc2cc(F)cc(-c3ccccc3Cl)c2O1 (stereo not shown) [Compound I-87, 1-[4-(2-Chlorophenyl)-6-fluoro-1,3-benzodioxol-2-yl]-N-methylmethanamine] | < 50 nM | 80% | < 100 nM | 
9 | CC(C)NCC1COc2cccc(-c3ccc(Cl)cc3Cl)c2O1 (stereo not shown) [Compound I-37, N-{[8-(2,4-Dichlorophenyl)-2,3-dihydro-1,4-benzodioxin-2-yl]methyl}propan-2-amine] | > 200 nM | 20% | > 500 nM | 
10 | CNCC1COc2cccc(-c3ccccc3C(F)(F)F)c2O1 (stereo not shown) [Compound I-20, N-Methyl-1-{8-[2-(trifluoromethyl)phenyl]-2,3-dihydro-1,4-benzodioxin-2-yl}methanamine] | 50 to 200 nM | 40% | > 500 nM | 
11 | NC[C@H]1COc2cccc(-c3ccccc3C(F)(F)F)c2O1 [Compound I-57, 1-{(2S)-8-[2-(trifluoromethyl)phenyl]-2,3-dihydro-1,4-benzodioxin-2-yl}methanamine] | < 50 nM | 50% |  | 
12 | COc1ccc(Cl)cc1-c1cccc2c1OC(CN)CO2 (stereo not shown) [Compound I-16, {[8-(5-Chloro-2-methoxyphenyl)-2,3-dihydro-1,4-benzodioxin-2-yl]methyl}amine] | 50 to 200 nM | 60% | < 100 nM | 
13 | NCC1Oc2cc(F)cc(-c3cc(Cl)ccc3Cl)c2O1 (stereo not shown) [Compound I-81, 1-[4-(2,5-Dichloro-phenyl)-6-fluoro-1,3-benzodioxol-2-yl]methanamine] | < 50 nM | 80% | < 100 nM | 
14 | NCC1Oc2cc(F)cc(-c3ccccc3F)c2O1 (stereo not shown) [Compound I-83, 1-[4-(2-Fluoro-phenyl)-6-fluoro-1,3-benzodioxol-2-yl]methanamine] | < 50 nM | 70% | < 100 nM | 
15 | CSc1ccc2c(c1)C(N1CCN(C)CC1)Cc1ccccc1S2 (stereo not shown) [Methiothepin, reference compound] |  |  |  | 4.6 nM
16 | COc1ccc(Cl)cc1-c1cc(Cl)cc2c1OC(CN)O2 (stereo not shown) [Compound I-94, [6-Chloro-4-(2-methoxy-5-chloro-phenyl)-benzo[1,3]dioxol-2-yl]-methylamine] | > 200 nM |  |  | 

Row | Compound | Ki [1, 2] | Emax (human 5-HT2C receptor) | EC50 (human 5-HT2C receptor) | Ki ([1]; reference compounds, 95% confidence interval in the next column, read-out: Ki)
17 | COc1cccc(-c2cc(Cl)cc3c2OC(CN)O3)c1OC (stereo not shown) [Compound I-95, [6-Chloro-4-(2,3-dimethoxy-phenyl)-benzo[1,3]dioxol-2-yl]-methylamine] | 50 to 200 nM |  |  | 
18 | COc1ccccc1-c1cccc2c1O[C@@](C)(CN)CO2 [Compound I-52, {[(2S)-8-(2-Methoxyphenyl)-2-methyl-2,3-dihydro-1,4-benzodioxin-2-yl]methyl}amine] | > 200 nM |  |  | 
19 | NCC1Oc2cc(F)cc(-c3cccc(Cl)c3)c2O1 (stereo not shown) [Compound I-78, 1-[4-(3-Chlorophenyl)-6-fluoro-1,3-benzodioxol-2-yl]methanamine] | 50 to 200 nM |  |  | 
20 | Cc1ccccc1-c1c(Cl)ccc2c1O[C@@H](CN)CO2 [Compound I-72, ((2S)-7-Chloro-8-o-tolyl-2,3-dihydrobenzo[b][1,4]dioxin-2-yl)methanamine] | < 50 nM |  |  | 
21 | NCC1Oc2cc(F)cc(-c3ccccc3)c2O1 (stereo not shown) [Compound I-77, 1-(6-Fluoro-4-phenyl-1,3-benzodioxol-2-yl)methanamine] | 50 to 200 nM |  |  | 
22 | C[C@]1(CN)COc2cccc(-c3cccc(Cl)c3)c2O1 [Compound I-50, {[(2S)-8-(3-Chlorophenyl)-2-methyl-2,3-dihydro-1,4-benzodioxin-2-yl]methyl}amine] | > 200 nM |  |  | 
23 | NCC1Oc2cc(Cl)cc(-c3cc(F)ccc3F)c2O1 (stereo not shown) [Compound I-99, [6-Chloro-4-(2,5-difluoro-phenyl)-benzo[1,3]dioxol-2-yl]-methylamine] | 50 to 200 nM |  |  | 
24 | C[C@]1(CN)COc2cccc(-c3ccccc3)c2O1 [Compound I-48, {[(2S)-2-Methyl-8-phenyl-2,3-dihydro-1,4-benzodioxin-2-yl]methyl}amine] | > 200 nM |  |  | 
25 | CCNCC1Oc2cc(F)cc(-c3ccccc3Cl)c2O1 (stereo not shown) [Compound I-88, N-{[4-(2-Chlorophenyl)-6-fluoro-1,3-benzodioxol-2-yl]methyl}ethanamine] | 50 to 200 nM |  |  | 
26 | NC[C@H]1COc2cccc(-c3ccccc3Cl)c2O1 [Compound I-56, 1-[(2S)-8-(2-CHLOROPHENYL)-2,3-DIHYDRO-1,4-BENZODIOXIN-2-YL]METHANAMINE] | < 50 nM |  |  | 
27 | COc1ccc(Cl)cc1-c1cc(Cl)cc2c1O[C@@H](CN)CO2 [Compound I-68, (2S)-[6-Chloro-8-(5-chloro-2-methoxy-phenyl)-2,3-dihydro-benzo[1,4]dioxin-2-yl]-methylamine] | 50 to 200 nM |  |  | 
28 | Cc1cc(Cl)ccc1-c1cc(Cl)cc2c1OC(CN)O2 (stereo not shown) [Compound I-97, [6-Chloro-4-(4-chloro-2-methyl-phenyl)-benzo[1,3]dioxol-2-yl]-methylamine] | 50 to 200 nM |  |  | 
29 | C[C@]1(CN)COc2cccc(-c3ccsc3)c2O1 [Compound I-53, {[(2S)-2-Methyl-8-thien-3-yl-2,3-dihydro-1,4-benzodioxin-2-yl]methyl}amine] | > 200 nM |  |  | 
30 | COc1ccccc1-c1cc(Cl)cc2c1OC(CN)O2 (stereo not shown) [Compound I-92, [6-Chloro-4-(2-methoxy-phenyl)-benzo[1,3]dioxol-2-yl]-methylamine] | 50 to 200 nM |  |  | 
31 | NCC1Oc2cc(Cl)cc(-c3ccccc3F)c2O1 (stereo not shown) [Compound I-93, [6-Chloro-4-(2-fluoro-phenyl)-benzo[1,3]dioxol-2-yl]-methylamine] | 50 to 200 nM |  |  | 
